System: ICD patients with a LVEF of 40% or less
Assay: clinical study ALPHEE: prevention of cardiovascular hospitalization
Type: in vivo
Conditions: clinical trial using amiodarone as calibrator; oral, with a meal
Description: The primary objective of the study is to assess the efficacy of celivarone for the prevention of ICD interventions or death. The study also aims at assessing the usefulness of celivarone for reducing occurrences of cardiovascular hospitalization in treated patients.
This is a dose-finding multicenter, multinational, randomized, double blind, placebo controlled, parallel arm study including a positive control calibrator arm. Patients are randomized to one of three doses of celivarone or placebo or to the amiodarone calibrator arm.
The efficacy of celivarone is based on data regarding appropriate ICD intervention obtained by regular ICD interrogation, performed as described below, as well as on data regarding death of the randomized patients, in particular sudden death, and on data regarding cardiovascular hospitalization occurrences.
The study includes a one week screening period, followed by a treatment period scheduled for a minimum duration of 6 months for the last patient recruited and going from the first day of treatment to the end of treatment visit to be done 10-15 days prior to the scheduled study end date. […]
Cardiovascular hospitalization is an hospitalization with a cardiovascular cause, as assessed by the investigator. […]

CCCCc1oc2ccc(C(=O)OC(C)C)cc2c1C(=O)c1ccc(CCCN(CCCC)CCCC)cc1.O=C(O)/C=C/C(=O)O [celivarone, 2-butyl-3-[4-[3-(dibutylamino)propyl]benzoyl]-1-benzofuran-5-carboxylic acid isopropyl ester fumarate]
prevention of cardiovascular hospitalization: effective

Reference: US20110207811A1, “USE OF CELIVARONE FOR REDUCING OCCURRENCES OF CARDIOVASCULAR HOSPITALIZATION” (SANOFI-AVENTIS, priority 2010, published 2011)
